Data from EP0308783A2, “Antimycotic preparations” (BAYER AG, priority 1987, dated 1989).
In brackets after ≈: the same amount, converted by molar mass.

How the values were obtained:
Experiment in all cases: antimycotic in-vitro activity, serial dilution test
Assay type in all cases: cell-based
[1] = test system: Aspergillus fumigatus; conditions: Sabouraud's milieu d'epreuve, 28°C to 37 C, 96 hours, inoculum 5 x 10^3 to 10^4 germs/ml, read-out: MHK-Werte in µg/ml Närmedium Aspergillus fumigatus
Procedure: (§1) Die in-vitro-Prüfungen wurden im Reihenverdünnungstest mit Keiminokula von durchschnittlich 5 x 10^3 bis 10^4 Keimen/mi Substrat durchgeführt. Als Nährmedium dienten • a) für Dermatophyten und Schimmelpilze: Sabouraud's milieu d'epreuve • b) für Hefen: Fleischextrakt-Traubenzucker-Bouillon.
(§2) Die Bebrütungstemperatur betrug 28°C bis 37 C, die Bebrütungsdauer lag bei 24 bis 96 Stunden bei Hefen und 96 Stunden bei Dermatophyten und Schimmelpilzen.

[2] = test system: Candida albicans; conditions: Fleischextrakt-Traubenzucker-Bouillon, 28°C to 37 C, 24 to 96 hours, inoculum 5 x 10^3 to 10^4 germs/ml, read-out: MHK-Werte in µg/ml Närmedium Candida albicans
Procedure: as §1, §2

[3] = test system: Trichophyton mentagr.; conditions: Sabouraud's milieu d'epreuve, 28°C to 37 C, 96 hours, inoculum 5 x 10^3 to 10^4 germs/ml, read-out: MHK-Werte in µg/ml Närmedium Trichophyton mentagr.
Procedure: as §1, §2

[4] = test system: Torulopsis glabrata; conditions: Nakaseomyces glabratus; Fleischextrakt-Traubenzucker-Bouillon; 28°C to 37 C; 24 to 96 hours; inoculum 5 x 10^3 to 10^4 germs/ml; read-out: MHK-Werte in µg/ml Närmedium Torulopsis glabrata
Procedure: as §1, §2

[5] = test system: Microsporum canis; conditions: Sabouraud's milieu d'epreuve, 28°C to 37 C, 96 hours, inoculum 5 x 10^3 to 10^4 germs/ml, read-out: MHK-Werte in µg/ml Närmedium Microsporum canis
Procedure: as §1, §2

| SMILES | MIC [1] [µg/mL] | MIC [2] [µg/mL] | MIC [3] [µg/mL] | MIC [4] [µg/mL] | MIC [5] [µg/mL] |
| --- | --- | --- | --- | --- | --- |
| OC(Cn1cncn1)(c1ccc(Cl)cc1)C1(F)CC1 (stereo not drawn) [(A), 1-(4-Chlorphenyl)-1-(1-fluor-cycloprop-1-yl)-2-(1,2,4-triazol-1-yl)-ethan-1-ol] | > 64 | > 64 | > 64 |  |  |
| OC(Cn1cncn1)(c1ccc(Cl)cc1)C1(Oc2ccc(Cl)cc2Cl)CC1 (stereo not drawn) [(B), 1-(4-Chlorphenyl)-1-[1-(2,4-dichiorphenoxy)-cycloprop-1-yl]-2-(1,2,4-triazol-1-yl)-ethan-1-ol] | > 64 | 16 (≈ 37.7 µM) | 64 (≈ 151 µM) | 64 (≈ 151 µM) |  |
| OC(COc1ccc(Cl)cc1)(Cn1cncn1)C1(Cl)CC1 (stereo not drawn) [Beispiel 1, 2-(1-Chlorcyclopropyl)-1-(4-chlorphenoxy)-3-(1,2,4-triazol-1-yl)-propan-2-ol] | 2 (≈ 6.09 µM) | 16 (≈ 48.8 µM) | < 1 | 16 (≈ 48.8 µM) | < 1 |
